From paper PMC9176691, “Design, synthesis and biological evaluation of novel diosgenin–benzoic acid mustard hybrids with potential anti-proliferative activities in human hepatoma HepG2 cells” (Journal of Enzyme Inhibition and Medicinal Chemistry, 2022)

How the values were obtained:
caspase 3 = experiment: Caspase 3 activity in cell lysates; assay type: cell-based, human; details: HepG2 cell lysates, 48 h
Experimental: (§1) The activities of caspase 9 and caspase 3 in the cell lysates were evaluated as described previously. The harvested HepG2 cells treated with varying concentrations of 14f for 48 h were lysed using chilled 100 µL lysis buffer, to extract the total protein. The protein concentration was assessed using a Bradford Kit. The protein samples were incubated with assay buffer and colorimetric substrate (Ac-DEVD-pNA or Ac-LEHD-pNA) at room temperature for 2 h, according to the manufacturer’s protocol. The released pNAs were measured at the wavelength of 405 nm using a Multiskan® Spectrum system. The experiments were performed in triplicate.

HepG2 cells [1] = experiment: MTT anti-proliferative assay, HepG2; assay type: cell-based, human
caspase 9 = experiment: Caspase 9 activity in cell lysates; assay type: cell-based, human; details: HepG2 cell lysates, 48 h
Experimental: as §1

MCF-7 cells = experiment: MTT anti-proliferative assay, MCF-7; assay type: cell-based, human
HepG2 cells [2] = experiment: Mitochondrial membrane potential (JC-1, flow cytometry); assay type: cell-based, human; details: 48 h (lower quadrant value)
Experimental: HepG2 cells were plated into 6-well plates for 12 h. Following treatment with varying concentrations of 14f for 48 h, the cells were incubated with JC-1 dyeing working solution for 0.5 h at room temperature, then washed with staining buffer 3 times and re-suspended in 300 µL of staining buffer. The cells were finally assessed and analysed using a flow cytometer (FACSCalibur™).

HeLa cells = experiment: MTT anti-proliferative assay, HeLa; assay type: cell-based; details: Homo sapiens, 48 h, read-out: IC50 HeLa
GES-1 cells = experiment: MTT cytotoxicity assay, normal GES-1; assay type: cell-based, human
[3] = test system: Bax, Bcl-2, caspase 9, and caspase 3; assay type: cell-based, human
[4] = test system: CDK2, CDK4, CDK6, cyclin D1 and cyclin E1; assay type: cell-based, human
HepG2 cells [5] = experiment: Flow cytometric analysis of cell cycle distribution (PI); assay type: cell-based, human; details: 24 h
Experimental: HepG2 cells were seeded into 6-well plates and allowed to grow for a period of 12 h. After incubation with different concentrations of 14f (0, 5, 10, and 20 µM) for 24 h, the cells were trypsinized, washed with phosphate-buffered saline (PBS), and fixed in 1.5 ml of 75% ethanol for the night, at 4 °C, following which RNase and propidium iodide (PI) (Multi Sciences Biotech Co. Ltd.) were added to the cells. The cell cycle distribution and data processing were analysed using a flow cytometer (FACSCalibur™, BD Biosciences, USA).

[6] = test system: CDK2, CDK4, CDK6, cyclin D1, and cyclin E1; experiment: Western blot of G0/G1 phase-related proteins; assay type: cell-based, human; details: HepG2 cells, 48 h
Experimental: (§2) To analyse the effect of compound 14f on protein levels, western blot assay was employed, as elaborated previously. The proteins were acquired by collecting HepG2 cells treated with varying concentrations of 14f for 48 h and adding them to lysis buffer, in an ice bath for 30 min. After quantitation of protein concentration using BCA assay, equal amounts of total protein were separated using 10% sodium dodecyl sulphate-polyacrylamide gel electrophoresis and then transferred onto polyvinylidene fluoride membranes. The membranes were incubated with 5% bovine serum albumin solution for 1.5 h at 37 °C, followed by incubation with primary antibody overnight, and finally secondary antibody for 2 h at 37 °C. The blots were detected using enhanced chemiluminescence reagent with a fully automatic gel imaging system (ChemiDoc™ MP, Bio-Rad). The relative expression was calculated by normalising the expression of the control group to 1 for comparison.

Bax and Bcl-2 = experiment: Western blot of Bax and Bcl-2; assay type: cell-based, human; details: HepG2 cells, 48 h
Experimental: as §2

HepG2 cells [7] = experiment: Hoechst 33342/PI staining, cell morphology; assay type: cell-based, human; details: HepG2, 5, 10 and 20 μM, 48 h
Experimental: First, HepG2 cells were plated into 6-well plates, at a density of 1 × 10^6 cells/well. Thereafter, 14f (0, 5, 10, and 20 µM) was added to the cells and they were incubated with it for 48 h; 0.1% DMSO was used as a vehicle control. The cellular morphology was then observed and photographed using a light microscope (Olympus, 1 × 51, Japan). Next, HepG2 cells were incubated with 14f (0, 5, 10, and 20 µM) for 48 h, after which the cells were collected and stained with a mixture of Hoechst 33342 and PI in buffer solution, for 20 min at room temperature. Finally, the cell samples were studied and photographed under a fluorescence microscope (Obeserve.A1, Zeiss, Germany).

HepG2 cells [8] = experiment: Apoptosis by flow cytometry (Annexin V-FITC/PI); assay type: cell-based, human; details: 48 h
Experimental: Briefly, HepG2 cells were incubated in 6-well plates for 24 h, and then treated with 14f (0, 5, 10, and 20 µM) for 48 h. Following that, the cells were washed once with pre-cold PBS, re-suspended in 300 µL of buffer solution, and stained with 10 µL of Annexin V-FITC and 5 µL of PI staining solution, under the conditions of 37 °C and absence of any light source, for 10 min. Finally, the samples were immediately measured using a flow cytometer. The percentages of apoptotic cells were determined on the CellQuest™ software (BD Biosciences).

## CC(=O)OC1CCC2(C)C(=CCC3C2CCC2(C)C3CC3OC(CCC(C)C(=O)N4CCCN(C(=O)c5ccc(N(CCCl)CCCl)cc5)CC4)C(C)C32)C1 [Compound 14f, (22 R,25R)-(4–(1-homopiperazinyl)-4-(bis(2-chloroethyl)amino)benzamido)-3β-acetoxy-5-en-furostan-26-amide]
Caspase 3
  enzyme activity of caspase 3: upregulated
HepG2 cells [1]
  potency fold higher than that of Mitomycin C: 14.4 fold
HepG2 cells [1]; Homo sapiens, HepG2, 48 h, read-out: IC50 HepG2
  IC50: 2260 ± 870 nM
Caspase 9
  enzyme activity of caspase 9: upregulated
MCF-7 cells
  fold more active than DSG: about 1.7 fold
MCF-7 cells; Homo sapiens, MCF7, 48 h, read-out: IC50 MCF-7
  IC50: 11.1 ± 1.01 µM
HepG2 cells [2]; HepG2, JC-1, 14f 5 µM
  percentage of mitochondrial depolarisation: 7.90%
HepG2 cells [2]; HepG2, JC-1, 14f 10 µM
  percentage of mitochondrial depolarisation: 15.55%
HepG2 cells [2]; HepG2, JC-1, 14f 20 µM
  percentage of mitochondrial depolarisation: 40.46%
HeLa cells
  IC50: 41.6 ± 3.12 µM
GES-1 cells
  SI: >44.25
GES-1 cells; Homo sapiens, GES1, 48 h, read-out: IC50 GES-1
  IC50: > 100 µM
[3]
  gene expression of Bax, caspase 9, and caspase 3: high gene expression
  gene expression of Bcl-2: suppressed
[4]
  genes levels of CDK2, CDK4, CDK6, cyclin D1 and cyclin E1: decreased
HepG2 cells [5]; HepG2, 5, 10 and 20 µM
  effect on the cell cycle: arrested the cell cycle at the G0/G1 phase
HepG2 cells [5]; HepG2, 14f 5 μM
  cells in G0/G1 phase: 33.76%
HepG2 cells [5]; HepG2, 14f 10 μM
  cells in G0/G1 phase: 40.38%
HepG2 cells [5]; HepG2, 14f 20 μM
  cells in G0/G1 phase: 46.40%
[6]
  expression levels of CDK2, CDK4, CDK6, cyclin D1, and cyclin E1 proteins: concentration-dependently downregulate
Bax and Bcl-2
  protein levels of Bax: upregulated
  protein levels of Bcl-2: downregulation
HepG2 cells [7]
  apoptosis seen by Hoechst 33342/PI staining: increase in the apoptosis of HepG2 cells
HepG2 cells [8]; HepG2, 14f 5 μM
  apoptotic cells: 9.80%
HepG2 cells [8]; HepG2, 14f 10 μM
  apoptotic cells: 14.38%
HepG2 cells [8]; HepG2, 14f 20 μM
  apoptotic cells: 28.13%
